Experimental data: patent publication US20090142347A1, “Tissue-Nonspecific Alkaline Phosphatase (TNAP): a Therapeutic Target for Arterial Calcification” (THE BURNHAM INSTITUTE FOR MEDICAL RESEARCH, priority 2004, published 2009)
Read-outs that look alike come from different tables or passages of the source. Values belong to the compound of their own block, whether it stands above or below them.

Columns and labels:
chTNALP = molecular target: T1, chTNALP (Gallus gallus, UniProt Q92058); assay: Ki of uncompetitive inhibitors (pNPP substrate); format: biochemical, chicken
T1 sequence (Q92058 17-498): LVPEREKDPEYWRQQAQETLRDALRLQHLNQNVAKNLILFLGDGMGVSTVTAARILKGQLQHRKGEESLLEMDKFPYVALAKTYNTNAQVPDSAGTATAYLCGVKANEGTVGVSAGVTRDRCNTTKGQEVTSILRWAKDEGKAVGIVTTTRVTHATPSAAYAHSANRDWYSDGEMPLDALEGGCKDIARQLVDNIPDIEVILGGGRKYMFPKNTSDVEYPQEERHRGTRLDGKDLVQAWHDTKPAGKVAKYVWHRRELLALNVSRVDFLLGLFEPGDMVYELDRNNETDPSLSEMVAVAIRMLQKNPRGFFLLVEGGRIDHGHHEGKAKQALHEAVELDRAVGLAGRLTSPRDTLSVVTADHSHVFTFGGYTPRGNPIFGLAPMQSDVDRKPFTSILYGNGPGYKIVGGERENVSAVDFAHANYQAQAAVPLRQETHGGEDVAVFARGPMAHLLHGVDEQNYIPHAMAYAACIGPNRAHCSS
Text: (See Kozlenkov A, et al., 2002). […] TNAP and PLAP structures were superimposed and the amino acid differences within a 12 Å radius around the catalytic Zn1 ion were pinpointed. The difference between human TNAP and chicken TNAP were also mapped because it is reported that chicken TNAP is much less susceptible to levamisol than is human TNAP. In total, six positions with amino acid differences were found, which could be clustered into two groups. […] In addition, […] and […] were also investigated.

hPLALP (E107, G108) = molecular target: T2, hPLALP (E107, G108) (Homo sapiens, UniProt P05187, F129E/Q130G); assay: Ki of uncompetitive inhibitors (pNPP substrate); format: biochemical; conditions: hPLALP mutant (E107, G108); read-out: Ki for various inhibitors
T2 construct: made in house; host or cells: COS-7 (given only for the TNAP-Flag constructs)
Description: (§1) In brief, samples of the enzymes were added to microtiter plates coated with M2 anti-FLAG antibody, and saturating activities with the substrate pNPP were measured in 1 M DEA/HCl buffer, pH 9.8, containing 1 mM MgCl2 and 20 .micro.M ZnCl2.

hPLALP (E107, G429) = molecular target: T3, hPLALP (E107, G429) (Homo sapiens, UniProt P05187, E451G/F129E); assay: Ki of uncompetitive inhibitors (pNPP substrate); format: biochemical; conditions: hPLALP mutant (E107, G429); read-out: Ki for various inhibitors
T3 construct: made in house; host or cells: COS-7 (given only for the TNAP-Flag constructs)
Description: as §1

hPLALP (G108, G429) = molecular target: T4, hPLALP (G108, G429) (Homo sapiens, UniProt P05187, E451G/Q130G); assay: Ki of uncompetitive inhibitors (pNPP substrate); format: biochemical; conditions: hPLALP mutant (G108, G429); read-out: Ki for various inhibitors
T4 construct: made in house; host or cells: COS-7 (given only for the TNAP-Flag constructs)
Description: as §1

hPLALP = molecular target: T5, hPLALP (Homo sapiens, UniProt P05187); assay: Ki of uncompetitive inhibitors (pNPP substrate); format: biochemical; conditions: read-out: Ki for various inhibitors
T5 construct: made in house
Description: as §1

hPLALP (R428, H429) = molecular target: T6, hPLALP (R428, H429) (Homo sapiens, UniProt P05187, D450R/E451H); assay: Ki of uncompetitive inhibitors (pNPP substrate); format: biochemical; conditions: hPLALP mutant (R428, H429); read-out: Ki for various inhibitors
T6 construct: made in house; host or cells: COS-7 (given only for the TNAP-Flag constructs)
Description: as §1

hPLALP D165 = molecular target: T7, hPLALP D165 (Homo sapiens, UniProt P05187, N187D); assay: Ki of uncompetitive inhibitors (pNPP substrate); format: biochemical; conditions: hPLALP mutant D165; read-out: Ki for various inhibitors
T7 construct: made in house; host or cells: COS-7 (given only for the TNAP-Flag constructs)
Description: as §1

hPLALP E107 = molecular target: T8, hPLALP E107 (Homo sapiens, UniProt P05187, F129E); assay: Ki of uncompetitive inhibitors (pNPP substrate); format: biochemical; conditions: hPLALP mutant E107; read-out: Ki for various inhibitors
T8 construct: made in house
Description: as §1

hPLALP G108 = molecular target: T9, hPLALP G108 (Homo sapiens, UniProt P05187, Q130G); assay: Ki of uncompetitive inhibitors (pNPP substrate); format: biochemical; conditions: hPLALP mutant G108; read-out: Ki for various inhibitors
T9 construct: made in house; host or cells: COS-7 (given only for the TNAP-Flag constructs)
Description: as §1

hPLALP H429 = molecular target: T10, hPLALP H429 (Homo sapiens, UniProt P05187, E451H); assay: Ki of uncompetitive inhibitors (pNPP substrate); format: biochemical; conditions: hPLALP mutant H429; read-out: Ki for various inhibitors
T10 construct: made in house; host or cells: COS-7 (given only for the TNAP-Flag constructs)
Description: as §1

hPLALP R428 = molecular target: T11, hPLALP R428 (Homo sapiens, UniProt P05187, D450R); assay: Ki of uncompetitive inhibitors (pNPP substrate); format: biochemical; conditions: hPLALP mutant R428; read-out: Ki for various inhibitors
T11 construct: made in house; host or cells: COS-7 (given only for the TNAP-Flag constructs)
Description: as §1

hPLALP S119 = molecular target: T12, hPLALP S119 (Homo sapiens, UniProt P05187, N141S); assay: Ki of uncompetitive inhibitors (pNPP substrate); format: biochemical; conditions: hPLALP mutant S119; read-out: Ki for various inhibitors
T12 construct: made in house; host or cells: COS-7 (given only for the TNAP-Flag constructs)
Description: as §1

[1] = tested on: bovine VSMC calcification; conditions: Shioi et al., 1995; cited from earlier work
[2] = molecular target: Recombinant human FLAG-TNAP (Homo sapiens, UniProt P05186); assay: Chemical library screening, TNAP pNPP microtiter plate assay; conditions: for inhibition response: positive controls, 0.5 mM pNPP, pH 9.8, concentration not given
wild-type osteoblasts = wild-type osteoblasts treated with exogenous PPi; RT-PCR
Text: To determine whether affecting the function of either NPP1 or ANK would have beneficial consequences on hypophosphatasia by reducing the amounts of extracellular PPi in the Akp2−/− mice, we bred either Enpp1−/− or ank/ank mice to the Akp2−/− mice. […] Hypophosphatasia arises from deficits in TNAP activity, resulting in an increase in PPi levels and concomitant increase in OPN levels.

Akp2−/− mice = conditions: Narisawa et al., 2001; cited from earlier work
[3] = tested on: TNAP activity in Enpp1−/− and ank/ank derived VSMC; conditions: Enpp1−/− and ank/ank derived VSMC in vitro, tetramisole 0.125 mM, 3 weeks (FIG. 5)
Text: Left panel: A) immunofluorscent detection of smooth muscle alpha-actin. VSMCs were isolated from WT aorta by collagenase digestion, all cells were stained for actin filaments (F-actin) by rhodamine phalloidin (red), and VSMCs were stained using a specific FITC-conjugated monoclonal anti-SM-alpha-actin (green). B) Proportion of cells staining positive for SM-alpha-actin. C) Total RNA was isolated and SM alpha-actin was detected by RT-PCR analysis. Middle panel: VSMCs isolated from WT, Enpp1−/− and ank/ank mice were cultured in the presence of beta-glycerophosphate for 4 weeks. Cells were then stained for TNAP activity (pink) and using von Kossa staining, mineral was detected (black/brown). The area of the culture well in which mineralization was present was quantified by using a point-counting method in which the plate was placed on a grid (divided into 10 mm×10 mm squares) and visualized using a dissecting microscope, the percent area occupied by mineral was assessed by counting the occurrences where the presence of mineral coincided with intercepts on the grid.

[4] = tested on: Enpp1−/− and ank/ank mice; conditions: subcutaneous, ALZET osmotic pumps, 10 μg/g/day, compared to control mice
Description: Flexibility was measured after euthanasia by determining the degree to which the root of the tail could be pulled back towards the neck, shoulders or lumbar spine until resistance prevented further flexing.
Tetramisole was delivered via ALZET osmotic pumps (Durect Corporation, Cupertino, Calif.) at a dose of 10 μg/g/day.

[5] = dose of 30 micrograms/g BW; results not shown
Text: (§2) In one example of this pharmacological study tetramisole will be used. […] For ApoE−/− mice arterial calcification is established by 3-months of age. Thus, the pump can feasibly be planted as early as 1-month of age, allowing treatment to begin at least as early.

MC3T3-E1 cells = tested on: MC3T3-E1 cells
Text: as §2

Sequence of Recombinant human FLAG-TNAP (P05186 18-501 limits assumed): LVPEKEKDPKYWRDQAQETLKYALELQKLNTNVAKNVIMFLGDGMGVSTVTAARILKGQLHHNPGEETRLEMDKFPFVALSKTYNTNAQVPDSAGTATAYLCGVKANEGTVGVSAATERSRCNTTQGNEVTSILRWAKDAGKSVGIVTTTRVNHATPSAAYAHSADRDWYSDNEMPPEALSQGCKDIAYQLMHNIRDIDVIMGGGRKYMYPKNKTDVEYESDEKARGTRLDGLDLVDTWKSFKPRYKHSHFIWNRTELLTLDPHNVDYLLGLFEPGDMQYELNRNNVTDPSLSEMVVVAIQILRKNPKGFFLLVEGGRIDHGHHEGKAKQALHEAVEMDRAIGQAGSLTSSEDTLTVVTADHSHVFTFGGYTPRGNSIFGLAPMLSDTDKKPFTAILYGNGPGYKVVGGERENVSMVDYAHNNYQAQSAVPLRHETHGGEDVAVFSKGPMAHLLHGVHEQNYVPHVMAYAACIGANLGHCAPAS
T10 sequence (P05187 23-506 E451H limits assumed): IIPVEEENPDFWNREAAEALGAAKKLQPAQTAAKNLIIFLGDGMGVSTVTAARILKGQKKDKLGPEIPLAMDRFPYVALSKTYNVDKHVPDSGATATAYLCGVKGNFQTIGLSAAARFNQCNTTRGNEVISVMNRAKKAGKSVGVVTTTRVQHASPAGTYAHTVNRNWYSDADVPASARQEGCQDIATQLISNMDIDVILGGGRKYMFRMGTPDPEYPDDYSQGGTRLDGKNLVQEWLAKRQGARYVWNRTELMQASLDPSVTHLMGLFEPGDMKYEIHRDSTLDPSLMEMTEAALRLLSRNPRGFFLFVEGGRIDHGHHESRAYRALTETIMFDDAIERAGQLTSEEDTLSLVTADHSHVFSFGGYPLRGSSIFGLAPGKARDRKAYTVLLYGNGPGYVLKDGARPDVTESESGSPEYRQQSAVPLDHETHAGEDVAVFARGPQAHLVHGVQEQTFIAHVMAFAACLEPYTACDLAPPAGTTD
T5 sequence (P05187 23-506 limits assumed): as the sequence (P05187 23-506 E451H limits assumed) above, with H429E counted along it
T11 sequence (P05187 23-506 D450R limits assumed): as the sequence (P05187 23-506 E451H limits assumed) above, with D428R, H429E counted along it
T12 sequence (P05187 23-506 N141S limits assumed): as the sequence (P05187 23-506 E451H limits assumed) above, with N119S, H429E counted along it
T4 sequence (P05187 23-506 Q130G/E451G limits assumed): as the sequence (P05187 23-506 E451H limits assumed) above, with Q108G, H429G counted along it
T9 sequence (P05187 23-506 Q130G limits assumed): as the sequence (P05187 23-506 E451H limits assumed) above, with Q108G, H429E counted along it
T2 sequence (P05187 23-506 F129E/Q130G limits assumed): as the sequence (P05187 23-506 E451H limits assumed) above, with F107E, Q108G, H429E counted along it
T6 sequence (P05187 23-506 D450R/E451H limits assumed): as the sequence (P05187 23-506 E451H limits assumed) above, with D428R counted along it
T7 sequence (P05187 23-506 N187D limits assumed): as the sequence (P05187 23-506 E451H limits assumed) above, with N165D, H429E counted along it
T3 sequence (P05187 23-506 F129E/E451G limits assumed): as the sequence (P05187 23-506 E451H limits assumed) above, with F107E, H429G counted along it
T8 sequence (P05187 23-506 F129E limits assumed): as the sequence (P05187 23-506 E451H limits assumed) above, with F107E, H429E counted along it

- Ki (chTNALP; read-out: Ki for various inhibitors): 136 ± 20 µM
- Ki (hPLALP (E107, G108)): 1150 ± 60 µM
- Ki (hPLALP (E107, G429)): 535 ± 80 µM
- Ki (hPLALP (G108, G429)): 480 ± 60 µM
- Ki (hPLALP): 563 ± 56 µM
- Ki (hPLALP (R428, H429)): 34 ± 1 µM
- Ki (hPLALP D165): 680 ± 140 µM
- Ki (hPLALP E107): 1050 ± 40 µM
- Ki (hPLALP G108): 458 ± 30 µM
- Ki (hPLALP H429): 50 ± 3 µM
- Ki (hPLALP R428): 460 ± 40 µM
- Ki (hPLALP S119): 630 ± 90 µM
- inhibition response [2]: around 50%
- inhibition of the enzymatic activity of TNAP (confirmed screening hits) ([2]; screen of 53,080 compounds): inhibit the enzymatic activity of TNAP
Compound: c1ccc([C@H]2CN3CCSC3=N2)cc1 [Levamisole]
- bovine VSMC calcification [1]: blocks bovine VSMC calcification in a dose-dependent manner

Compound: O=P(O)(O)OP(=O)(O)O [PPi, Inorganic pyrophosphate]
- NPP1 and ANK expression (wild-type osteoblasts): decreased NPP1 and ANK expression
- OPN expression (wild-type osteoblasts): increase in OPN expression

Compound: Cn1c(=O)c2[nH]cnc2n(C)c1=O [Theophylline, theophylline]
- Ki (chTNALP; Ki for various inhibitors, (1)*, (1)*: 1 mM pNPP): 393 ± 150 µM
- Ki (chTNALP; Ki for various inhibitors, (20)*, (20)*: 20 mM pNPP): 111 ± 8 µM

Compound: Cc1ncc(CO)c(C=O)c1O [pyridoxal]
- apoptosis in the thymus and the lumbar nerve roots (Akp2−/− mice): reverses apoptosis
- epileptic seizures (Akp2−/− mice): suppresses the epileptic seizures

Compound: c1ccc(C2CN3CCSC3=N2)cc1 (stereo not drawn) [tetramisole]
- TNAP activity in VSMC [3]: inhibits TNAP activity
- TNAP activity in VSMC ([3]; listed as Tetramisole): normalize TNAP activity
- flexibility of the spine [4]: enhanced flexibility of the spine
- tolerability [5]: well tolerated
- PPi levels (MC3T3-E1 cells): raise PPi levels

- inhibition response [2]: around 50%
Compound: phosphate
